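Method: 48-hour compound exposure of cells in 96-well plates, five concentrations, linear interpolation of endpoints. GI50: concentration for 50% inhibition of growth. TGI: concentration producing complete growth inhibition.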
What was measured:
Assay in all cases: NCI anticancer screen, dose series, 48 h
RPMI-8226 leukemia = tested on: RPMI-8226 leukemia
MALME-3M melanoma = tested on: MALME-3M melanoma
SF-295 CNS = tested on: SF-295 CNS
UACC-62 melanoma = tested on: UACC-62 melanoma
OVCAR-4 ovarian = tested on: OVCAR-4 ovarian
SN12C renal = tested on: SN12C renal
ACHN renal = tested on: ACHN renal
MOLT-4 leukemia = tested on: MOLT-4 leukemia
LOX IMVI melanoma = tested on: LOX IMVI melanoma
KM12 colon = tested on: KM12 colon

| SMILES | GI50 (RPMI-8226 leukemia) [µM] | TGI (RPMI-8226 leukemia) [µM] | GI50 (MALME-3M melanoma) [µM] | TGI (MALME-3M melanoma) [µM] | GI50 (SF-295 CNS) [µM] | TGI (SF-295 CNS) [µM] | GI50 (UACC-62 melanoma) [µM] | TGI (UACC-62 melanoma) [µM] | GI50 (OVCAR-4 ovarian) [µM] | TGI (OVCAR-4 ovarian) [µM] | GI50 (SN12C renal) [µM] | TGI (SN12C renal) [µM] | GI50 (ACHN renal) [µM] | TGI (ACHN renal) [µM] | GI50 (MOLT-4 leukemia) [µM] | TGI (MOLT-4 leukemia) [µM] | GI50 (LOX IMVI melanoma) [µM] | TGI (LOX IMVI melanoma) [µM] | GI50 (KM12 colon) [µM] | TGI (KM12 colon) [µM] |
| --- | --- | --- | --- | --- | --- | --- | --- | --- | --- | --- | --- | --- | --- | --- | --- | --- | --- | --- | --- | --- |
| NCCOCCOCCNc1nc(Cc2ccccc2)nc(NCCCN2CCCC2=O)n1 | > 100 | > 100 | > 100 | > 100 | > 100 | > 100 | > 100 | > 100 | > 100 | > 100 | > 100 | > 100 | > 100 | > 100 | > 100 | > 100 | > 100 | > 100 | > 100 | > 100 |
| C/C(=N\NS(=O)(=O)c1ccccc1)c1ccc(Cl)c(Cl)c1 | – | > 100 | – | > 100 | – | > 100 | – | > 100 | – | > 100 | – | > 100 | – | > 100 | – | > 100 | – | > 100 | – | > 100 |
| CCCCCCCCCCC(C(=O)O)C1(C(=O)O)CCC(=O)O1 (centres undefined) | – | > 100 | – | – | – | > 100 | – | > 100 | – | > 100 | – | > 100 | – | > 100 | – | > 100 | – | > 100 | – | > 100 |
| CN(C)CCCNC(CC#N)CCC#N (centres undefined) | – | – | – | > 10 | – | > 10 | – | > 10 | – | > 10 | – | > 10 | – | > 10 | – | > 10 | – | > 10 | – | > 10 |
| O=C(COc1ccc2c(=O)cc(-c3ccccc3)oc2c1)N1CCN(c2ccccc2)CC1 | – | > 100 | – | > 100 | – | > 100 | – | > 100 | – | – | – | > 100 | – | > 100 | – | > 100 | – | > 100 | – | > 100 |
| O=C(O)/C=C\C(=O)N1C/C(=C\c2ccccc2Cl)C(=O)/C(=C/c2ccccc2Cl)C1 | 1.35 | 10.3 | 3.96 | 18.4 | 4.4 | 16.5 | 1.88 | 3.97 | 3.37 | 13.6 | 2.93 | 9.31 | – | – | 3.06 | 11.2 | 1.56 | 3.71 | 1.6 | 3.12 |
| Cc1cc(N(CCC#N)CCC#N)ccc1N=Nc1cccc(C(=O)O)c1 | – | – | – | > 100 | – | > 100 | – | > 100 | – | > 100 | – | > 100 | – | > 100 | – | > 100 | – | > 100 | – | > 100 |
| COc1ccc(C2=Nc3ccccc3NC(=O)C2)cc1 | – | – | – | > 100 | – | 47.8 | – | > 100 | – | > 100 | – | > 100 | – | > 100 | – | > 100 | – | 37.1 | – | > 100 |
| Nn1c(NNC(=O)C(=O)Nc2cc(Cl)c(Cl)cc2Cl)n[nH]c1=S | – | – | – | > 100 | – | > 100 | – | > 100 | – | > 100 | – | > 100 | – | > 100 | – | – | – | > 100 | – | > 100 |
| NC1C[C@H](n2cc(/C=C/Br)c(=O)[nH]c2=O)C[C@@H]1CO (some centres undefined) | – | > 100 | – | – | – | > 100 | – | > 100 | – | > 100 | – | > 100 | – | > 100 | – | > 100 | – | > 100 | – | – |
| Cc1ccc(N=Cc2ccc3c(c2)OCO3)cc1C | – | > 100 | – | > 100 | – | > 100 | – | > 100 | – | – | – | > 100 | – | > 100 | – | > 100 | – | > 100 | – | > 100 |
| COc1cc(OC(C)=O)cc2c(OC(C)=O)ccc(OC(C)=O)c12 | – | > 100 | – | – | – | > 100 | – | > 100 | – | > 100 | – | > 100 | – | > 100 | – | > 100 | – | > 100 | – | > 100 |
| COc1ccc(-c2ccc(/C=N/n3c(COc4ccc(Cl)cc4Cl)nn(CN4CCOCC4)c3=S)o2)c([N+](=O)[O-])c1 | 12.7 | 40.1 | 24.6 | 52.7 | 17.4 | 46.9 | 87.6 | > 100 | 21.7 | 78.8 | 24.5 | 67.7 | 36.1 | > 100 | 19.4 | 63.3 | – | – | 16.7 | 32.6 |
| COc1ccc(/C=C2\CCCC3=C2N=C2SC(C)=NN2C3c2ccc(OC)c(OC)c2)cc1OC (centres undefined) | – | – | 15.1 | 56.6 | 14.8 | > 100 | 4.68 | 45.6 | – | – | 14 | > 100 | 4.2 | 33.3 | 13.8 | > 100 | 4.52 | 35.2 | 8.41 | > 100 |
| CC1SC2=NC3=C(c4ccccc4C3=O)C(c3ccc(F)cc3)N2C1=O (centres undefined) | – | > 100 | – | > 100 | – | > 100 | – | > 100 | – | > 100 | – | > 100 | – | > 100 | – | > 100 | – | – | – | > 100 |
| CC1(C)C(=NNC(=O)C[N+](C)(C)C)C(C)(C)C1=NNC(=O)C[N+](C)(C)C | – | – | – | > 100 | – | > 100 | – | > 100 | – | > 100 | – | > 100 | – | > 100 | – | > 100 | – | > 100 | – | > 100 |
| O=[N+]([O-])C1C2C=CC(C2)[C@H]1c1ccco1 (some centres undefined) | – | – | – | > 100 | – | > 100 | – | > 100 | – | > 100 | – | > 100 | – | > 100 | – | > 100 | – | > 100 | – | > 100 |
| COc1cc(/C=C/c2cc(O)c3cc(C(C)=O)c(=O)oc3c2)cc2c1O[C@]1(C)CC[C@@H](O)C(C)(C)[C@H]1C2 | – | – | – | > 33 | – | – | – | > 27.8 | > 43 | > 74.3 | > 33 | > 68 | > 22.9 | > 74 | – | > 26.4 | – | > 42.2 | > 20.8 | > 39.3 |
| CCc1ccccc1NC(=O)C(=O)CC(=O)c1sc(Nc2ccccc2)nc1C | – | – | – | > 100 | – | > 100 | – | > 100 | – | > 100 | – | > 100 | – | > 100 | – | > 100 | – | > 100 | – | > 100 |
| COc1ccc(-c2n/c(=C\c3c(O)[nH]c4ccc(OC)cc34)cc3c2=Nc2ccccc2-3)cc1 | 3.21 | 37.3 | – | – | 3.9 | 24.1 | – | – | – | – | 4 | > 100 | 26.7 | > 100 | 2.41 | 5.27 | 19.9 | 75.4 | 3.8 | > 100 |
| CC1C=C(OC(=O)c2ccccc2)C(=O)C(n2cc(F)c(=O)[nH]c2=O)O1 (centres undefined) | – | > 100 | – | > 100 | – | > 100 | – | > 100 | – | > 100 | – | > 100 | – | > 100 | – | > 100 | – | – | – | > 100 |
| CC(C)[C@H]1CO[C@]2(C)[C@@H]3CN(Cc4ccccc4)C[C@@H]3C(=O)N12 | – | > 100 | – | > 100 | – | > 100 | – | > 100 | – | > 100 | – | > 100 | – | > 100 | – | > 100 | – | – | – | > 100 |
| COc1ccc(-c2nc3sc4c(c3c(=O)[nH]2)CCCCCC4)cc1 | > 33.2 | > 33.2 | 3.72 | > 33.2 | 0.989 | > 33.2 | 0.908 | > 33.2 | – | – | > 33.2 | > 33.2 | 2.3 | > 33.2 | 31.6 | > 33.2 | 3.12 | > 33.2 | 1.18 | > 33.2 |
| CC(CCC(=O)O)[C@H]1CCC2[C@@H]3CC[C@@H]4CC(O)CC[C@]4(C)C3CC[C@@]21C (some centres undefined) | 23.6 | 57.1 | > 100 | > 100 | – | – | 38.6 | > 100 | 31.4 | > 100 | > 100 | > 100 | 29.3 | > 100 | 22 | 79 | 29.5 | > 100 | 40.5 | > 100 |
| CCCCC(CC)CN=C(N)NC(N)=NCCCCCCN=C(N)NC(N)=NCC(CC)CCCC (centres undefined) | – | – | – | – | – | – | 1.84 | 4.12 | 1.9 | 4.85 | 1.52 | 4.39 | 2.85 | 7.74 | – | – | – | – | – | – |
| COc1ccc(-c2csc(N(C(=O)N3CCN(c4cc5c(cc4F)c(=O)c(C(=O)O)cn5C4CC4)CC3)c3ccccc3)n2)cc1 | – | – | 2.64 | 7.54 | 2.49 | 8.61 | 2.24 | 8.91 | 1.56 | > 100 | 2.95 | > 100 | 1.85 | 5.09 | 3.78 | > 100 | – | – | 3.41 | > 100 |
| Cc1ccccc1[P+](Cc1ccccc1)(c1ccccc1)c1ccccc1 | 0.603 | 6.34 | – | – | 1.75 | 5.28 | 1.36 | 11.9 | 1.91 | > 100 | 2.85 | 90.3 | 8.3 | > 100 | 3.58 | 17.6 | 2.27 | 15.3 | 1.12 | 15.1 |

Reference: PubChem BioAssay (NCI)
